Data: patent publication US9266939B2, “Compositions comprising natriuretic peptides and methods of use thereof” (Alexion Pharmaceuticals, Inc., priority 2010, dated 2016)
“And” between values parts separate entries of the source, which are not always exact repeats. Identical values can stand only once. Marks after values point to notes of the source that are not given here.

Test system: wild-type (CD-1) mice
Experiment: Daily bolus SC injection of NC2st on bone growth in wild-type (CD-1) mice
Format: in vivo
Experimental: The study was designed to evaluate the relationship between different doses of NC2st and the pharmacologic response on bone. The relationship was evaluated by measuring the effect of increasing doses of NC2st (SEQ ID NO: 502; as described, e.g., in Example 1) on bone growth in wild-type (WT, CD-1) mice. Bone growth response of wild-type and Fgfr3^369/+ (ACH) mice was compared.
CD-1 mice are a standard rodent species for use in pharmacodynamic studies. Briefly, nursing mothers with fostered female pups of 13 to 16 days were obtained. At the age of 21 days, pups were weaned and randomized based on body weight into treatment groups.
The animals received NC2st as a subcutaneous injection into the interscapular region as described in Table 11 below.
CD-1 mice were treated at 3 weeks old at the indicated doses for 35 consecutive days, followed by necropsy 24 hours after the last injection.
Ex vivo radiographs of whole body, rib cage, and skull were taken using a Faxitron model MX-20 DC4 under constant conditions (26 kV, 10 sec at 1×, 3× and 3× magnification, respectively). Bone measurements were performed on the radiographic images of all animals in a blinded fashion using the software Image Processing and Analysis in Java (ImageJ).
Bone samples were cleaned of excess tissue (not scraped) and fixed. Length of femur and tibia was measured using a caliper.

[1] = day 36, Tx-10 (10 mg/kg SC once daily)
[2] = day 36, Tx-30 (30 mg/kg SC once daily)
[3] = day 36, Tx-100 (100 mg/kg SC once daily)

NC2st: Fc-CNP fusion: Strep-tag II, TEV site, human IgG-1 Fc, 16-amino acid glycine-rich linker, CNP22; SEQ ID NO: 502
treatment time after which crown-rump length in vivo differed significantly from Vehicle (Tx-30): 2 weeks
treatment time after which tail length in vivo differed significantly from Vehicle (Tx-30): 2 weeks
treatment time after which tibia length in vivo differed significantly from Vehicle (Tx-30): 4 weeks
treatment time after which crown-rump length in vivo differed significantly from Vehicle (Tx-100): 2 weeks
treatment time after which tail length in vivo differed significantly from Vehicle (Tx-100): 2 weeks
treatment time after which tibia length in vivo differed significantly from Vehicle (Tx-100): 2 weeks
% Δ Cervical segment (X-Ray) compared to Vehicle [1]: 8.8%
% Δ Circularity index (X-Ray) compared to Vehicle [1]: −1.9%
% Δ Crown-rump length in vivo compared to Vehicle [1]: 4.4%
% Δ Foramen magnum height compared to Vehicle [1]: 1.2%
% Δ Foramen magnum width compared to Vehicle [1]: 1.3%
% Δ Left Femur length compared to Vehicle [1]: 3.3%
% Δ Left Humerus length compared to Vehicle [1]: 1.6%
% Δ Left Tibia length compared to Vehicle [1]: 2.8%
% Δ Left Ulna length compared to Vehicle [1]: 0.71%
% Δ Lumbar segment (X-Ray) compared to Vehicle [1]: 6.2%
% Δ Metatarsal bone (3rd digit) (X-Ray) compared to Vehicle [1]: 5.2%
% Δ Naso-anal length (X-Ray) compared to Vehicle [1]: 6.5%
% Δ Occipital-front distance (X-Ray) compared to Vehicle [1]: 1.4%
% Δ Right Tibia length in vivo compared to Vehicle [1]: 1.1%
% Δ Sternum length (X-Ray) compared to Vehicle [1]: 6.9%
% Δ Tail length in vivo compared to Vehicle [1]: 6.1%
% Δ Thoracic segment (X-Ray) compared to Vehicle [1]: 11.4%
% Δ Total CTL segments (X-Ray) compared to Vehicle [1]: 8.9%
Cervical segment (X-Ray) [1]: 9.00 mm
Circularity index (X-Ray) [1]: 0.370
Crown-rump length in vivo [1]: 99.1 mm
Foramen magnum height [1]: 4.13 mm
Foramen magnum width [1]: 4.72 mm
Left Femur length [1]: 15.6* mm
Left Humerus length [1]: 12.4 mm
Left Tibia length [1]: 18.5 mm
Left Ulna length [1]: 14.1 mm
Lumbar segment (X-Ray) [1]: 20.5* mm
Metatarsal bone (3rd digit) (X-Ray) [1]: 24.5* mm
Naso-anal length (X-Ray) [1]: 115* mm
Occipital-front distance (X-Ray) [1]: 42.9 mm
Right Tibia length in vivo [1]: 19.0 mm
Sternum length (X-Ray) [1]: 38.5* mm
Tail length in vivo [1]: 102 mm
Thoracic segment (X-Ray) [1]: 25.5* mm
Total CTL segments (X-Ray) [1]: 55.0* mm
Δ Cervical segment (X-Ray) compared to Vehicle [1]: 0.73 mm
Δ Circularity index (X-Ray) compared to Vehicle [1]: −0.007
Δ Crown-rump length in vivo compared to Vehicle [1]: 4.2 mm
Δ Foramen magnum height compared to Vehicle [1]: 0.05 mm
Δ Foramen magnum width compared to Vehicle [1]: 0.06 mm
Δ Left Femur length compared to Vehicle [1]: 0.5 mm
Δ Left Humerus length compared to Vehicle [1]: 0.2 mm
Δ Left Tibia length compared to Vehicle [1]: 0.5 mm
Δ Left Ulna length compared to Vehicle [1]: 0.10 mm
Δ Lumbar segment (X-Ray) compared to Vehicle [1]: 1.2 mm
Δ Metatarsal bone (3rd digit) (X-Ray) compared to Vehicle [1]: 1.2 mm
Δ Naso-anal length (X-Ray) compared to Vehicle [1]: 7.0 mm
Δ Occipital-front distance (X-Ray) compared to Vehicle [1]: 0.6 mm
Δ Right Tibia length in vivo compared to Vehicle [1]: 0.20 mm
Δ Sternum length (X-Ray) compared to Vehicle [1]: 2.5 mm
Δ Tail length in vivo compared to Vehicle [1]: 5.9 mm
Δ Thoracic segment (X-Ray) compared to Vehicle [1]: 2.6 mm
Δ Total CTL segments (X-Ray) compared to Vehicle [1]: 4.5 mm
% Δ Cervical segment (X-Ray) compared to Vehicle [2]: 13.8%
% Δ Circularity index (X-Ray) compared to Vehicle [2]: −4.0%
% Δ Crown-rump length in vivo compared to Vehicle [2]: 7.5%
% Δ Foramen magnum height compared to Vehicle [2]: 0.98%
% Δ Foramen magnum width compared to Vehicle [2]: 1.5%
% Δ Left Femur length compared to Vehicle [2]: 6.0%
% Δ Left Humerus length compared to Vehicle [2]: 2.5%
% Δ Left Tibia length compared to Vehicle [2]: 5.0%
% Δ Left Ulna length compared to Vehicle [2]: 3.6%
% Δ Lumbar segment (X-Ray) compared to Vehicle [2]: 9.3%
% Δ Metatarsal bone (3rd digit) (X-Ray) compared to Vehicle [2]: 6.4%
% Δ Naso-anal length (X-Ray) compared to Vehicle [2]: 9% and 9.3%
% Δ Occipital-front distance (X-Ray) compared to Vehicle [2]: 1.2%
% Δ Right Tibia length in vivo compared to Vehicle [2]: 3.2%
% Δ Sternum length (X-Ray) compared to Vehicle [2]: 10.8%
% Δ Tail length in vivo compared to Vehicle [2]: 10.3%
% Δ Thoracic segment (X-Ray) compared to Vehicle [2]: 14.4%
% Δ Total CTL segments (X-Ray) compared to Vehicle [2]: 12.3%
Cervical segment (X-Ray) [2]: 9.41* mm
Circularity index (X-Ray) [2]: 0.362
Crown-rump length in vivo [2]: 102* mm
Foramen magnum height [2]: 4.12 mm
Foramen magnum width [2]: 4.73 mm
Left Femur length [2]: 16.0* mm
Left Humerus length [2]: 12.5* mm
Left Tibia length [2]: 18.9* mm
Left Ulna length [2]: 14.5 mm
Lumbar segment (X-Ray) [2]: 21.1* mm
Metatarsal bone (3rd digit) (X-Ray) [2]: 24.8* mm
Naso-anal length (X-Ray) [2]: 118* mm
Occipital-front distance (X-Ray) [2]: 42.8 mm
Right Tibia length in vivo [2]: 19.4* mm
Sternum length (X-Ray) [2]: 39.9* mm
Tail length in vivo [2]: 106* mm
Thoracic segment (X-Ray) [2]: 26.2* mm
Total CTL segments (X-Ray) [2]: 56.7* mm
Δ Cervical segment (X-Ray) compared to Vehicle [2]: 1.14 mm
Δ Circularity index (X-Ray) compared to Vehicle [2]: −0.015
Δ Crown-rump length in vivo compared to Vehicle [2]: 7.1 mm
Δ Foramen magnum height compared to Vehicle [2]: 0.04 mm
Δ Foramen magnum width compared to Vehicle [2]: 0.07 mm
Δ Left Femur length compared to Vehicle [2]: 0.9 mm
Δ Left Humerus length compared to Vehicle [2]: 0.3 mm
Δ Left Tibia length compared to Vehicle [2]: 0.9 mm
Δ Left Ulna length compared to Vehicle [2]: 0.5 mm
Δ Lumbar segment (X-Ray) compared to Vehicle [2]: 1.8 mm
Δ Metatarsal bone (3rd digit) (X-Ray) compared to Vehicle [2]: 1.5 mm
Δ Naso-anal length (X-Ray) compared to Vehicle [2]: 10 mm
Δ Occipital-front distance (X-Ray) compared to Vehicle [2]: 0.5 mm
Δ Right Tibia length in vivo compared to Vehicle [2]: 0.60 mm
Δ Sternum length (X-Ray) compared to Vehicle [2]: 3.9 mm
Δ Tail length in vivo compared to Vehicle [2]: 9.9 mm
Δ Thoracic segment (X-Ray) compared to Vehicle [2]: 3.3 mm
Δ Total CTL segments (X-Ray) compared to Vehicle [2]: 6.2 mm
% Δ Cervical segment (X-Ray) compared to Vehicle [3]: 20.3%
% Δ Circularity index (X-Ray) compared to Vehicle [3]: −7.4%
% Δ Crown-rump length in vivo compared to Vehicle [3]: 12.7%
% Δ Foramen magnum height compared to Vehicle [3]: 2.2%
% Δ Foramen magnum width compared to Vehicle [3]: 1.3%
% Δ Left Femur length compared to Vehicle [3]: 10% and 9.9%
% Δ Left Humerus length compared to Vehicle [3]: 6% and 5.7%
% Δ Left Tibia length compared to Vehicle [3]: 7% and 7.2%
% Δ Left Ulna length compared to Vehicle [3]: 6% and 5.7%
% Δ Lumbar segment (X-Ray) compared to Vehicle [3]: 13.5%
% Δ Metatarsal bone (3rd digit) (X-Ray) compared to Vehicle [3]: 12.0%
% Δ Naso-anal length (X-Ray) compared to Vehicle [3]: 13%
% Δ Occipital-front distance (X-Ray) compared to Vehicle [3]: 2.1%
% Δ Right Tibia length in vivo compared to Vehicle [3]: 6.4%
% Δ Sternum length (X-Ray) compared to Vehicle [3]: 12.5%
% Δ Tail length in vivo compared to Vehicle [3]: 16.5%
% Δ Thoracic segment (X-Ray) compared to Vehicle [3]: 21.0%
% Δ Total CTL segments (X-Ray) compared to Vehicle [3]: 17.8%
Cervical segment (X-Ray) [3]: 9.95* mm
Circularity index (X-Ray) [3]: 0.349*
Crown-rump length in vivo [3]: 107* mm
Foramen magnum height [3]: 4.17 mm
Foramen magnum width [3]: 4.72 mm
Left Femur length [3]: 16.6* mm
Left Humerus length [3]: 12.9* mm
Left Tibia length [3]: 19.3* mm
Left Ulna length [3]: 14.8* mm
Lumbar segment (X-Ray) [3]: 21.9* mm
Metatarsal bone (3rd digit) (X-Ray) [3]: 26.1* mm
Naso-anal length (X-Ray) [3]: 122* mm
Occipital-front distance (X-Ray) [3]: 43.2* mm
Right Tibia length in vivo [3]: 20.0* mm
Sternum length (X-Ray) [3]: 40.5* mm
Tail length in vivo [3]: 112* mm
Thoracic segment (X-Ray) [3]: 27.7* mm
Total CTL segments (X-Ray) [3]: 59.5* mm
Δ Cervical segment (X-Ray) compared to Vehicle [3]: 1.68 mm
Δ Circularity index (X-Ray) compared to Vehicle [3]: −0.028
Δ Crown-rump length in vivo compared to Vehicle [3]: 12.1 mm
Δ Foramen magnum height compared to Vehicle [3]: 0.09 mm
Δ Foramen magnum width compared to Vehicle [3]: 0.06 mm
Δ Left Femur length compared to Vehicle [3]: 1.5 mm
Δ Left Humerus length compared to Vehicle [3]: 0.7 mm
Δ Left Tibia length compared to Vehicle [3]: 1.3 mm
Δ Left Ulna length compared to Vehicle [3]: 0.8 mm
Δ Lumbar segment (X-Ray) compared to Vehicle [3]: 2.6 mm
Δ Metatarsal bone (3rd digit) (X-Ray) compared to Vehicle [3]: 2.8 mm
Δ Naso-anal length (X-Ray) compared to Vehicle [3]: 14 mm
Δ Occipital-front distance (X-Ray) compared to Vehicle [3]: 0.9 mm
Δ Right Tibia length in vivo compared to Vehicle [3]: 1.2 mm
Δ Sternum length (X-Ray) compared to Vehicle [3]: 4.5 mm
Δ Tail length in vivo compared to Vehicle [3]: 15.9 mm
Δ Thoracic segment (X-Ray) compared to Vehicle [3]: 4.8 mm
Δ Total CTL segments (X-Ray) compared to Vehicle [3]: 9.0 mm
